In patent US20040063729A1, “Triazolopyrimidines” (priority 2000, published 2004):

Tested on: Kidney beans (variety:Serina)
Assay: Phytotoxicity tested at the same time in the foliar spray test
Assay type: in vivo
Details: active compound concentration of 500 ppm; foliar spray on kidney beans
Method: Kidney beans (variety:Serina) were cultivated in plastic pots each having a diameter of 6 cm. The previously prepared solution of the prescribed concentration of active compound was sprayed over the plants in the 1 leaf stage at a rate of 20 ml per pot. One day after spraying, a gel obtained by mixing a suspension of spores of artificially cultured Botrytis cinera and PDA medium was added dropwise to the removed first leaf for infection in a plastic box having a size of 20 while maintaining humidity. 5 days after the inoculation, the infection rate per pot was classified and evaluated according to the following standard, and the control value (%) was calculated. Phytotoxicity was tested at the same time. This test is an average of the results of 3 replications. The evaluation of the infection rate and the calculation method of the control value were conducted as follows: […]

Compound	Phytotoxicity
Fc1ccc(Cc2c(Cl)nc3ncnn3c2Cl)c(F)c1F [I-6]	No phytotoxicity
Fc1ccc(F)c(Cc2c(Cl)nc3ncnn3c2Cl)c1F [I-11]	No phytotoxicity
Fc1cc(F)c(Cc2c(Cl)nc3ncnn3c2Cl)cc1F [I-18]	No phytotoxicity
Fc1cc(F)c(Cc2c(Cl)nc3ncnn3c2Cl)c(F)c1 [I-20]	No phytotoxicity
FC(F)(F)c1cccc(Cc2c(Cl)nc3ncnn3c2Cl)c1 [I-73]	No phytotoxicity
Cc1cccc(Cc2c(Cl)nc3ncnn3c2Cl)c1 [I-75]	No phytotoxicity
Clc1cccc(Cc2c(Cl)nc3ncnn3c2Cl)c1 [I-76]	No phytotoxicity
Cc1ccc(Cc2c(Cl)nc3ncnn3c2Cl)cc1 [I-94]	No phytotoxicity
Clc1ccc(Cc2c(Cl)nc3ncnn3c2Cl)cc1 [I-95, 5,7-dichloro-6-(4-chlorobenzyl)[1,2,4]triazolo[1,5-a]pyrimidine]	No phytotoxicity
FC(F)(F)Oc1ccc(Cc2c(Cl)nc3ncnn3c2Cl)cc1 [I-104]	No phytotoxicity
Clc1nc2ncnn2c(Cl)c1Cc1ccccc1 [I-110]	No phytotoxicity
CC(c1ccccc1)c1c(Cl)nc2ncnn2c1Cl (stereo not shown) [I-112]	No phytotoxicity
Clc1cccc(Cc2cnc3ncnn3c2Cl)c1Cl [I-142]	No phytotoxicity
Clc1ccc(Cc2cnc3ncnn3c2Cl)cc1Cl [I-146]	No phytotoxicity

Tested on: not given
Assay: not given
Details: not given

Compound	melting point [°C]
Clc1ccc(Cc2c(Cl)nc3ncnn3c2Cl)cc1 [I-95, 5,7-dichloro-6-(4-chlorobenzyl)[1,2,4]triazolo[1,5-a]pyrimidine]	165 to 167
Clc1c(Cc2ccccc2)cnc2ncnn12 [I-111, 6-benzyl-7-chloro[1,2,4]triazolo[1,5-a]pyrimidine]	123 to 127
